# Measurements reported in PubChem BioAssay (NCI).
#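 Abbreviation: GI50, concentration required for 50% inhibition of growth. TGI: concentration producing complete growth inhibition.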
# How the values were obtained:
# Assay in all cases: growth of human tumour cells (NCI), 384-well format
# 786-0 renal = tested on: 786-0 renal
# A498 renal = tested on: A498 renal
# A549 NSCLC = tested on: A549 NSCLC
# ACHN renal = tested on: ACHN renal
# BT-549 breast = tested on: BT-549 breast
# CAKI-1 renal = tested on: CAKI-1 renal
# CCRF-CEM leukemia = tested on: CCRF-CEM leukemia
# COLO 205 colon = tested on: COLO 205 colon
# DU-145 prostate = tested on: DU-145 prostate
# EKVX NSCLC = tested on: EKVX NSCLC
# HCC-2998 colon = tested on: HCC-2998 colon
# HCT-116 colon = tested on: HCT-116 colon
# HCT-15 colon = tested on: HCT-15 colon
# HL-60(TB) leukemia = tested on: HL-60(TB) leukemia
# HOP-62 NSCLC = tested on: HOP-62 NSCLC
# HOP-92 NSCLC = tested on: HOP-92 NSCLC
# HS 578T breast = tested on: HS 578T breast
# HT29 colon = tested on: HT29 colon
# IGROV1 ovarian = tested on: IGROV1 ovarian
# K-562 leukemia = tested on: K-562 leukemia
# KM12 colon = tested on: KM12 colon
# LOX IMVI melanoma = tested on: LOX IMVI melanoma
# M14 melanoma = tested on: M14 melanoma
# MALME-3M melanoma = tested on: MALME-3M melanoma
# MCF7 breast = tested on: MCF7 breast
# MDA-MB-231 breast = tested on: MDA-MB-231 breast
# MDA-MB-435 melanoma = tested on: MDA-MB-435 melanoma
# MDA-MB-468 breast = tested on: MDA-MB-468 breast
# MOLT-4 leukemia = tested on: MOLT-4 leukemia
# NCI-H226 lung = tested on: NCI-H226 lung
# NCI-H23 lung = tested on: NCI-H23 lung
# NCI-H322M lung = tested on: NCI-H322M lung
# NCI-H460 NSCLC = tested on: NCI-H460 NSCLC
# NCI-H522 lung = tested on: NCI-H522 lung
# NCI/ADR-RES ovarian = tested on: NCI/ADR-RES ovarian
# OVCAR-3 ovarian = tested on: OVCAR-3 ovarian
# OVCAR-4 ovarian = tested on: OVCAR-4 ovarian
# OVCAR-8 ovarian = tested on: OVCAR-8 ovarian
# PC-3 prostate = tested on: PC-3 prostate
# RPMI-8226 leukemia = tested on: RPMI-8226 leukemia
# RXF 393 renal = tested on: RXF 393 renal
# SF-268 CNS = tested on: SF-268 CNS
# SF-295 CNS = tested on: SF-295 CNS
# SF-539 CNS = tested on: SF-539 CNS
# SK-MEL-28 melanoma = tested on: SK-MEL-28 melanoma
# SK-MEL-5 melanoma = tested on: SK-MEL-5 melanoma
# SK-OV-3 ovarian = tested on: SK-OV-3 ovarian
# SN12C renal = tested on: SN12C renal
# SNB-19 CNS = tested on: SNB-19 CNS
# SNB-75 CNS = tested on: SNB-75 CNS
# SW-620 colon = tested on: SW-620 colon
# T-47D breast = tested on: T-47D breast
# TK-10 renal = tested on: TK-10 renal
# U251 glioblastoma = tested on: U251 glioblastoma
# UACC-257 melanoma = tested on: UACC-257 melanoma
# UACC-62 melanoma = tested on: UACC-62 melanoma
# UO-31 renal = tested on: UO-31 renal
smiles,measurement,setting,value
COc1cc2nc(N3CCCN(C)CC3)nc(NC3CCN(Cc4ccccc4)CC3)c2cc1OC,GI50,786-0 renal,1300 nM
same,TGI,786-0 renal,2590 nM
same,GI50,A498 renal,625 nM
same,TGI,A498 renal,1830 nM
same,GI50,A549 NSCLC,1660 nM
same,TGI,A549 NSCLC,3080 nM
same,GI50,ACHN renal,1650 nM
same,TGI,ACHN renal,3040 nM
same,GI50,BT-549 breast,1090 nM
same,TGI,BT-549 breast,2300 nM
same,GI50,CAKI-1 renal,578 nM
same,TGI,CAKI-1 renal,1830 nM
same,GI50,CCRF-CEM leukemia,227 nM
same,TGI,CCRF-CEM leukemia,622 nM
same,GI50,COLO 205 colon,1340 nM
same,TGI,COLO 205 colon,2640 nM
same,GI50,DU-145 prostate,1380 nM
same,TGI,DU-145 prostate,2730 nM
same,GI50,EKVX NSCLC,1650 nM
same,TGI,EKVX NSCLC,3620 nM
same,GI50,HCC-2998 colon,867 nM
same,TGI,HCC-2998 colon,2130 nM
same,GI50,HCT-116 colon,351 nM
same,TGI,HCT-116 colon,1020 nM
same,GI50,HCT-15 colon,611 nM
same,TGI,HCT-15 colon,1900 nM
same,GI50,HL-60(TB) leukemia,233 nM
same,TGI,HL-60(TB) leukemia,541 nM
same,GI50,HOP-62 NSCLC,1760 nM
same,TGI,HOP-62 NSCLC,3170 nM
same,GI50,HOP-92 NSCLC,1380 nM
same,TGI,HOP-92 NSCLC,2720 nM
same,GI50,HS 578T breast,1480 nM
same,TGI,HS 578T breast,2810 nM
same,GI50,HT29 colon,395 nM
same,TGI,HT29 colon,1320 nM
same,GI50,IGROV1 ovarian,1850 nM
same,TGI,IGROV1 ovarian,3830 nM
same,GI50,K-562 leukemia,163 nM
same,TGI,K-562 leukemia,366 nM
same,GI50,KM12 colon,434 nM
same,TGI,KM12 colon,1670 nM
same,GI50,LOX IMVI melanoma,1540 nM
same,TGI,LOX IMVI melanoma,2890 nM
same,GI50,M14 melanoma,600 nM
same,TGI,M14 melanoma,1850 nM
same,GI50,MALME-3M melanoma,1150 nM
same,TGI,MALME-3M melanoma,2370 nM
same,GI50,MCF7 breast,694 nM
same,TGI,MCF7 breast,2020 nM
same,GI50,MDA-MB-231 breast,725 nM
same,TGI,MDA-MB-231 breast,2110 nM
same,GI50,MDA-MB-435 melanoma,1570 nM
same,TGI,MDA-MB-435 melanoma,2930 nM
same,GI50,MDA-MB-468 breast,1200 nM
same,TGI,MDA-MB-468 breast,2450 nM
same,GI50,MOLT-4 leukemia,538 nM
same,TGI,MOLT-4 leukemia,1840 nM
same,GI50,NCI-H226 lung,1590 nM
same,TGI,NCI-H226 lung,3180 nM
same,GI50,NCI-H23 lung,1560 nM
same,TGI,NCI-H23 lung,3160 nM
same,GI50,NCI-H322M lung,1440 nM
same,TGI,NCI-H322M lung,2840 nM
same,GI50,NCI-H460 NSCLC,456 nM
same,TGI,NCI-H460 NSCLC,1500 nM
same,GI50,NCI-H522 lung,1430 nM
same,TGI,NCI-H522 lung,2750 nM
same,GI50,NCI/ADR-RES ovarian,4780 nM
same,TGI,NCI/ADR-RES ovarian,15900 nM
same,GI50,OVCAR-3 ovarian,540 nM
same,TGI,OVCAR-3 ovarian,1710 nM
same,GI50,OVCAR-4 ovarian,1010 nM
same,TGI,OVCAR-4 ovarian,2190 nM
same,GI50,OVCAR-8 ovarian,1030 nM
same,TGI,OVCAR-8 ovarian,2240 nM
same,GI50,PC-3 prostate,1140 nM
same,TGI,PC-3 prostate,2550 nM
same,GI50,RPMI-8226 leukemia,449 nM
same,TGI,RPMI-8226 leukemia,1540 nM
same,GI50,RXF 393 renal,572 nM
same,TGI,RXF 393 renal,1890 nM
same,GI50,SF-268 CNS,943 nM
same,TGI,SF-268 CNS,2140 nM
same,GI50,SF-295 CNS,1550 nM
same,TGI,SF-295 CNS,2890 nM
same,GI50,SF-539 CNS,339 nM
same,TGI,SF-539 CNS,916 nM
same,GI50,SK-MEL-28 melanoma,1640 nM
same,TGI,SK-MEL-28 melanoma,3020 nM
same,GI50,SK-MEL-5 melanoma,968 nM
same,TGI,SK-MEL-5 melanoma,2160 nM
same,GI50,SK-OV-3 ovarian,1350 nM
same,TGI,SK-OV-3 ovarian,2660 nM
same,GI50,SN12C renal,1720 nM
same,TGI,SN12C renal,3220 nM
same,GI50,SNB-19 CNS,1510 nM
same,TGI,SNB-19 CNS,3340 nM
same,GI50,SNB-75 CNS,1660 nM
same,TGI,SNB-75 CNS,3040 nM
same,GI50,SW-620 colon,405 nM
same,TGI,SW-620 colon,1450 nM
same,GI50,T-47D breast,1780 nM
same,TGI,T-47D breast,3200 nM
same,GI50,TK-10 renal,1180 nM
same,TGI,TK-10 renal,2500 nM
same,GI50,U251 glioblastoma,1150 nM
same,TGI,U251 glioblastoma,2390 nM
same,GI50,UACC-257 melanoma,178 nM
same,TGI,UACC-257 melanoma,319 nM
same,GI50,UACC-62 melanoma,1280 nM
same,TGI,UACC-62 melanoma,2570 nM
same,GI50,UO-31 renal,1780 nM
same,TGI,UO-31 renal,3180 nM
